In US6683069B1, “Methods and compositions for reducing UV-induced inhibition of collagen synthesis in human skin” (Regents of the University of Michigan, priority 1998, dated 2004):

Experiments:
[1] = test system: Type III procollagen protein and pN collagen precursor protein; assay: Western analysis of Type III procollagen protein and pN precursor protein in retinoic acid-pretreated, UV-exposed human skin; format: in vivo; conditions: 0.1% topical, FIG. 15
Experimental: (§1) We tested whether retinoids, in particular all-trans retinoic acid, would have any effect on the loss of procollagen mRNA and/or the procollagen proteins in human skin after exposure to UV radiation. (Unless otherwise noted, the retinoic acid used in the experiments described herein was all-trans.) Separate areas of skin from each of our volunteers were treated with either 0.1% retinoic acid in vehicle or with vehicle alone; the vehicle was composed of a mixture of ethanol and polyethylene glycol in a 70:30 volumetric ratio. Thereafter, these areas of skin were exposed to 2 MEDs (typically) of UV radiation and then biopsied at specific times after the exposure; the biopsies were analyzed as described previously. […]
(§2) Western analysis of proteins. Type I procollagen and pN collagen precursor protein, as well as Type III procollagen were detected in skin extracts by Western analysis as described by G. J. Fisher et al. (in “Immunological identification and functional quantitation of retinoic acid and retinoid X receptor proteins in human skin,” J. Biol. Chem., 269:20629-20635 (1994)).
(§3) Immunoreactive proteins were visualized by enhanced chemiluminescence detection and quantified by laser densitometry, or by enhanced chemifluorescence detection and quantified by a Storm imager (Molecular Dynamics, Sunnyvale, Calif.).

[2] = test system: Type III procollagen mRNA; assay: In situ hybridization for Type III procollagen mRNA in biopsies of retinoid-pretreated, UV-exposed human skin; format: in vivo; conditions: 0.1% topical, pretreatment 24 h before UV; FIG. 13D
Experimental: as §1, with “previously. The site of the volunteers' skin to be exposed to UV radiation was treated prior to UV exposure with either the all-trans retinoic acid or the control vehicle.” for “previously.”
(§4) In Situ Hybridization: Digoxigenin-containing sense and antisense riboprobes to detect human type I and Type III procollagen RNA (mRNA) were synthesized with the use of T3 and T7 ribonucleic acid polymerases. […] Hybridization signals were detected immunohistochemically with the use of alkaline phosphatase-conjugated antidigoxigenin antibody.

[3] = test system: Type I procollagen and pN collagen precursor protein; assay: Western analysis of Type I procollagen protein and pN precursor protein in retinoic acid-pretreated, UV-exposed human skin; format: in vivo; conditions: 0.1% topical, FIG. 12
Experimental: We tested whether retinoids, in particular all-trans retinoic acid, would have any effect on the loss of procollagen mRNA and/or the procollagen proteins in human skin after exposure to UV radiation. (Unless otherwise noted, the retinoic acid used in the experiments described herein was all-trans.) Separate areas of skin from each of our volunteers were treated with either 0.1% retinoic acid in vehicle or with vehicle alone; the vehicle was composed of a mixture of ethanol and polyethylene glycol in a 70:30 volumetric ratio. Thereafter, these areas of skin were exposed to 2 MEDs (typically) of UV radiation and then biopsied at specific times after the exposure; the biopsies were analyzed as described previously. The site of the volunteers' skin to be exposed to UV radiation was treated prior to UV exposure with either the all-trans retinoic acid or the control vehicle. […] Nevertheless, it should be understood that a period of pretreatment with retinoid more than eight and less than twenty-four hours before UV exposure may likely be sufficient to prevent the reduction in collagen biosynthesis we have observed. Furthermore, it should be understood that in all of the following examples treatment with a retinoid (e.g., “retinoic acid-treated”) or the vehicle (e.g.,. “vehicle-treated”) should each be understood as pretreatment 24 hours before UV exposure. […]
as §2, §3

[4] = test system: Type III procollagen protein; assay: Immunohistological staining for Type III procollagen protein in biopsies of retinoid-pretreated, UV-exposed human skin; format: in vivo; conditions: 0.1% topical, pretreatment 24 h before 2 MEDs UV, biopsy 24 h after exposure; FIG. 14D
Experimental: as §1
(§5) Immunohistology: Immunihistology of Type I and Type III pN collagens was performed as has been described by Griffiths, C. […] Type I pN collagen was detected with mouse monoclonal IgG1 antibody (SP1.D8; available from Univ. of Iowa Dept. of Biological Sciences Developmental Studies Hybridoma Bank, Iowa City, Iowa) raised against the aminopropeptide region of human Type I procollagen (Foellmer, H. G., et al., Euro. J. Biochm., 134:183-189 (1983)). Type III pN collagen was detected with affinity-purified rabbit polyclonal antibody to aminopropeptide of Type III procollagen (identical to that used for Western analysis). […]

[5] = test system: Type I procollagen mRNA; assay: In situ hybridization for Type I procollagen mRNA in biopsies of retinoid-pretreated, UV-exposed human skin; format: in vivo; conditions: 0.1% topical
Experimental: as §1, with “previously. The site of the volunteers' skin to be exposed to UV radiation was treated prior to UV exposure with either the all-trans retinoic acid or the control vehicle.” for “previously.”
as §4

[6] = test system: Type I procollagen protein; assay: Immunohistological staining for Type I procollagen protein in biopsies of retinoid-pretreated, UV-exposed human skin; format: in vivo; conditions: 0.1% topical
Experimental: as §1, §5

[7] = test system: soluble collagen; assay: Soluble collagen (hydroxyproline content) in retinoid-pretreated, UV-exposed human skin in vivo; conditions: 0.1% topical
Experimental: We tested whether retinoids, in particular all-trans retinoic acid, would have any effect on the loss of procollagen mRNA and/or the procollagen proteins in human skin after exposure to UV radiation. (Unless otherwise noted, the retinoic acid used in the experiments described herein was all-trans.) Separate areas of skin from each of our volunteers were treated with either 0.1% retinoic acid in vehicle or with vehicle alone; the vehicle was composed of a mixture of ethanol and polyethylene glycol in a 70:30 volumetric ratio. Thereafter, these areas of skin were exposed to 2 MEDs (typically) of UV radiation and then biopsied at specific times after the exposure; the biopsies were analyzed as described previously. The site of the volunteers' skin to be exposed to UV radiation was treated prior to UV exposure with either the all-trans retinoic acid or the control vehicle. […] Nevertheless, it should be understood that a period of pretreatment with retinoid more than eight and less than twenty-four hours before UV exposure may likely be sufficient to prevent the reduction in collagen biosynthesis we have observed. Furthermore, it should be understood that in all of the following examples treatment with a retinoid (e.g., “retinoic acid-treated”) or the vehicle (e.g.,. “vehicle-treated”) should each be understood as pretreatment 24 hours before UV exposure.
We also assayed the biopsies from our volunteers for soluble collagen (measured as hydroxyproline content) in vehicle- and retinoid-treated skin, both before and after UV exposure. […] After UV exposure, the vehicle-treated skin (VEH+UV) had only about 40% of the soluble collagen as was present prior to exposure. The retinoid-treated area (RA+UV) still had reduced amounts of soluble collagen when compared with skin prior to UV exposure, yet the levels were almost twice what was found in the vehicle-treated/UV-exposed skin.
As mentioned above, the area of the volunteers' skin to be treated with a retinoid prior to UV exposure was pretreated 24 hours prior to exposure. We pretreated certain volunteer's sun-protected skin with 0.1% all trans retinoic acid 8 hours prior to exposure to 2 MEDs of UV radiation. […] Thus, as mentioned above, to prevent UV-induced loss of collagen synthesis using a retinoid, pretreatment 24 hours before exposure yields the desired prophylactic effect, whereas pretreatment 8 hours before exposure yields no significant prophylaxis.
Hydroxyproline Analysis: hydroxyproline analysis using the Amino Acid Analyzer Model 420H (Applied Biosystems, Foster City, Calif.) automates precolumn phenylthiocarbamyl-amino acid (PTC-AA) analysis. The Model 420H analyzer first hydrolyzes proteins to liberate free amino acids. Once hydrolyzed, the free amino acids are derivatized with phenylisothiocynanate (PITC) to form PTC-AA derivatives. A reverse-phase column in a temperature-controlled oven separates the PTC-AAs. Concentration of hydroxyproline in the skin extract was determined based upon a hydroxyproline standard.

[8] = pretreatment 24 h before 2 MEDs UV, biopsy 24 h after exposure

For `CC1=C(/C=C/C(C)=C/C=C/C(C)=C/C(=O)O)C(C)(C)CCC1` [all-trans retinoic acid], the “Amounts of Type III procollagen protein and pN precursor protein vs vehicle-treated skin, prior to UV exposure” value ([1]; no UV) was “essentially the same amounts”, the “Amounts of Type III procollagen protein and pN precursor protein after UV vs control and retinoic acid-treated areas prior to exposure” value ([1]; pretreatment 24 h before 2 MEDs UV, RA+UV) was “essentially the same amounts” and the “Reduction in expression of Type III procollagen mRNA after UV exposure” value [2] was “little, if any, reduction”. For the same compound, the “Amounts of Type I procollagen and pN precursor protein vs vehicle-treated skin, unexposed” value ([3]; no UV, vehicle normalized to 1.0) was “essentially the same amounts”, the “Type I procollagen protein after UV, relative to control” value [3, 8] was “greater than 80 % of the control” and the “pN collagen precursor protein (Type I) after UV, relative to control” value [3, 8] was “greater than 80 % of the control”. The “Type III procollagen protein staining after UV vs prior to UV exposure” value [4] was “almost the same pattern and intensity of staining”, the “Type I procollagen mRNA expression in fibroblasts vs vehicle-treated skin, prior to UV exposure” value ([5]; 24 h after treatment, no UV, FIG. 10B vs 10A) was “essentially the same in both” and the “Type I procollagen mRNA expression after UV exposure” value ([5]; pretreatment 24 h before UV, FIG. 10D) was “does not appear to evidence any loss in the mRNA signalling”. For the same compound, the “Type I procollagen protein staining vs vehicle-treated skin, prior to UV exposure” value ([6]; no UV, FIG. 11B vs 11A) was “no appreciable difference”, the “Type I procollagen protein staining after UV vs before UV exposure” value ([6]; pretreatment 24 h before 2 MED UV, biopsy 24 h after exposure, FIG. 11D) was “comparable, though slightly reduced” and the “Soluble collagen (hydroxyproline content) vs vehicle-treated skin, prior to UV exposure” value ([7]; 24 h pretreatment, no UV, FIG. 16) was “about the same”. The “Soluble collagen (hydroxyproline content) vs vehicle-treated skin, without UV exposure” value ([7]; after 8 hours, no UV, FIG. 17) was “the same”, the “Soluble collagen (hydroxyproline content) 24 hours after UV exposure vs vehicle-treated skin” value ([7]; pretreatment 8 hours before 2 MEDs UV, FIG. 17) was “essentially the same” and the “Soluble collagen (hydroxyproline content) after UV, relative to vehicle-treated/UV-exposed skin” value ([7]; pretreatment 24 h before UV, RA+UV, FIG. 16) was “almost twice”. For the same compound, the “Prevention of UV-induced reduction in collagen biosynthesis” value ([7]; pretreatment 24 hours before UV exposure) was “a reduction in collagen biosynthesis was prevented” and the “Prevention of UV-induced reduction in collagen synthesis” value ([7]; pretreatment eight hours before UV exposure) was “did not appear to significantly prevent reduction in collagen synthesis”.
